Patent US8697722B2 (SRI International, priority 2007, dated 2014)
Like-named read-outs stand apart in the source and are kept apart here.

What was measured:
[1] = target: T1, rat α3β4 receptors (Rattus norvegicus, UniProt P04757+P12392); test: [3H]epibatidine competition binding on membranes of HEK cells transfected with rat α3β4 receptors
T1 construct: expressed in transfected cells; host or cells: HEK cells (KXα3β4R2)

[2] = target: T2, rat α4β2 receptors (Rattus norvegicus, UniProt P09483+P12390); test: [3H]epibatidine competition binding on membranes of HEK cells transfected with rat α4β2 receptors
T2 construct: expressed in transfected cells; host or cells: HEK cells (KXα4β2R2)

[3] = competition with 0.3 nM [3H]epibatidine, KXα3β4R2 HEK cell membranes, 3 h room temperature, read-out: Binding affinities α3β4 (Ki)
[4] = competition with 0.3 nM [3H]epibatidine, KXα4β2R2 HEK cell membranes, 3 h room temperature, read-out: Binding affinities α4β2 (Ki)
[5] = read-out: Binding affinities α4β2 (Ki)
[6] = read-out: Binding affinities α3β4 (Ki)

Compound	Ki [1, 3]	Ki [2, 4]	Ki [2]	Ki [2, 5]	Ki [1, 6]	also measured
O=c1cccc2n1C[C@@H]1CNC[C@H]2C1 [Cytisine, reference compound]	203 nM	1.53 nM				
CN1C2CCC1CC(N1C(=O)Cc3ccccc31)C2 (stereo not shown) [SR 16583]	2790 nM		> 10000 nM			
CN1C2CCCC1CC(N1C(=O)Cc3ccccc31)C2 (stereo not shown) [SR 16584]			> 10000 nM			
O=C1Cc2ccccc2N1C1CC2CCCC(C1)N2 (stereo not shown) [SR 16832]	421 nM		> 10000 nM			
C1=C(c2cccnc2)CC2CC1CN2Cc1ccccc1 (stereo not shown) [SR 17004]				1.95 nM		Ki [1]: 194 nM
CN1C2CCCC1CC(Nc1ccccc1)C2 (stereo not shown) [SR 17011]				> 10000 nM	826 nM	
C1=C(c2cnc3ccccc3c2)CC2CC1N(Cc1ccccc1)C2 (stereo not shown) [SR 17015]	2480 nM	29 nM				
CCOC(=O)N1C2C=C(c3cccnc3)CC1CCC2 (stereo not shown) [SR 17021]				> 10000 nM	> 10000 nM	
CN1C2C=C(c3cccnc3)CC1CCC2 (stereo not shown) [SR 17026]			10 nM		240 nM	
CN1C2C=C(c3cnc4ccccc4c3)CC1CCC2 (stereo not shown) [SR 17027]	2610 nM	423 nM				
